Source: patent US20220062330A1, “USE OF THIOSULFATE TO POTENTIATE THE ANTI-PATHOGENIC EFFECT OF LACTOBACILLI” (NEXBIOME THERAPEUTICS, priority 2012, published 2022)

Tested on: Candida albicans
Conditions: sodium thiosulfate alone in MRS medium, 1 g/l and 3 g/l, regardless of the concentration studied

## O=S(O)(O)=S [sodium thiosulfate]
  antifungal potential on Candida albicans growth: No antifungal potential
